≈ marks a conversion by molar mass, not a printed value. Like-named read-outs stand apart in the source and are kept apart here.
Key:
[1] = test system: Human colon cancer cell line HT-29; assay: Determination of the activity of inhibiting cell proliferation (Cell Counting Kit-8); type: cell-based; conditions: HT-29, 96 h, HT29, 2,000 cells/well, incubated four days, read-out: Cell proliferation inhibitory activity (HT29) IC50
Description: Human colon cancer cell line HT-29, obtained from American Type Culture Collection (VA, USA), and human non-small cell lung cancer cell line QG56, obtained from Immuno-Biological Laboratories Co., Ltd., were plated at 2,000 cells/well in a 96-well culture plate, and incubated for four days after addition of a MEK inhibitor of a given concentration.

[2] = target: MEK (Homo sapiens, UniProt Q02750); assay: Determination of MEK inhibitory activities (Raf-1 kinase cascade assay, MBP phosphorylation, 33P-ATP)
MEK, sequence (Q02750 whole entry): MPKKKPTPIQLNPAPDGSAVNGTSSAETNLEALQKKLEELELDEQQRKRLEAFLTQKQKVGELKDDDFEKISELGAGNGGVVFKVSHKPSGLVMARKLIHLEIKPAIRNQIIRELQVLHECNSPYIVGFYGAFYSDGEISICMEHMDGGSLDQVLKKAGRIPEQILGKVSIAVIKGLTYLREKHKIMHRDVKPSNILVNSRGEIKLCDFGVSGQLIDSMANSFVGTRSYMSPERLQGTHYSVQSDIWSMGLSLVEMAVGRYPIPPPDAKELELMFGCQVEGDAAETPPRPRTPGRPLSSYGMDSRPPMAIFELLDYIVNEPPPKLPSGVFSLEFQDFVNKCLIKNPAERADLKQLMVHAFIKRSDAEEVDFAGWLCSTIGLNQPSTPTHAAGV
Description: The radioisotope used was [γ^33P]-ATP (Amersham Biosciences, K.K.).

[3] = Determination of stability against human liver microsomes; type: in vitro ADME; conditions: human liver microsomes 1 mg protein/mL, 2 mM NADPH, pH 7.4, 37 C; read-out: Stability against human liver microsome NADPH+ T1/2
Description: (§1) The enzyme reaction was quenched with three volumes of acetonitrile, and the reaction mixture was centrifuged at 1,500 rpm for ten minutes to provide a supernatant as a sample to be measured. Stability against human liver microsomes was measured using HPLC/MS to determine the compounds in the sample.

[4] = Determination of water solubility (equilibrium stirring method); type: physicochemical; conditions: for solubility at 2 h: aqueous buffer, thermodynamic from solid, read-out: Water solubility (LySA PH 6.5)
Description: The vessels were sealed, and the contents were sonicated at room temperature (20° C.) for ten minutes, and then stirred with a stirrer for two hours. After reaching solution equilibrium, the solution was separated with a membrane filter, and the solute concentration was determined using HPLC.

[5] = Determination of stability against mouse liver microsomes; type: in vitro ADME; conditions: mouse liver microsomes 1 mg protein/mL, 2 mM NADPH, pH 7.4, 37 C; read-out: Stability against mouse liver microsome NADPH+ T1/2
Description: as §1, with “mouse” for “human”

[6] = 50 mM phosphate buffer pH 6.5, room temperature (20 C)

| Compound | IC50 [1] [nM] | IC50 [2] [nM] | half-life [3] [h] | solubility at 2 h ([4]; phosphate buffer, 20 °C, at pH 6.67) [µM] | half-life [5] [h] | solubility at 2 h ([4]; phosphate buffer, 20 °C, at pH 6.06) [µM] | Water solubility (LySA PH 6.5) [4, 6] [µM] | solubility at 2 h [4, 6] [µM] |
| --- | --- | --- | --- | --- | --- | --- | --- | --- |
| O=C(NOCCO)c1cc(/C=N/OCC(O)CO)c(F)c(F)c1Nc1ccc(I)cc1F (racemic) [Compound 7, (E)-dl-5-[(2,3-Dihydroxy-propoxyimino)-methyl]-3,4-difluoro-2-(2-fluoro-4-iodo-phenylamino)-N-(2-hydroxy-ethoxy)-benzamide] | 37 | 33 | 1.51 | 162 (≈ 92.2 µg/mL) | > 6 |  |  |  |
| C#Cc1ccc(Nc2c(C(=O)NOCCO)cc(/C=N/OCC(O)CO)c(F)c2F)c(F)c1 (racemic) [Compound 8, (E)-dl-5-[(2,3-Dihydroxy-propoxyimino)-methyl]-2-(4-ethynyl-2-fluoro-phenylamino)-3,4-difluoro-N-(2-hydroxy-ethoxy)-benzamide] | 185 | 150 | 1.24 |  | > 6 | 1470 (≈ 687 µg/mL) |  |  |
| CC(C)(O)CO/N=C/c1cc(C(=O)NOCCO)c(Nc2ccc(I)cc2F)c(F)c1F [Compound 12, (E)-3,4-difluoro-2-(2-fluoro-4-iodophenylamino)-N-(2-hydroxy-ethoxy)-5-[(2-hydroxy-2-methyl-propoxyimino)-methyl]-benzamide] | < 19.5 | 37 |  |  | > 6 |  | 15 |  |
| CNC(=O)CCO/N=C/c1cc(C(=O)NOCCO)c(Nc2ccc(I)cc2F)c(F)c1F [Compound 14, (E)-3,4-difluoro-2-(2-fluoro-4-iodo-phenylamino)-N-(2-hydroxy-ethoxy)-5-[(2-methylcarbamoyl-ethoxyimino)-methyl]-benzamide] | 38 | 9.7 |  |  | 0.767 |  |  | 14 (≈ 8.12 µg/mL) |
| O=C(NOCCO)c1cc(/C=N/OCCN2CCCCC2)c(F)c(F)c1Nc1ccc(I)cc1F [Compound 17, (E)-3,4-difluoro-2-(2-fluoro-4-iodo-phenylamino)-N-(2-hydroxy-ethoxy)-5-[(2-piperidin-1-yl-ethoxyimino)-methyl]-benzamide] | 920 | 287 |  |  | > 6 |  |  | 462 (≈ 280 µg/mL) |
| CNCCO/N=C/c1cc(C(=O)NOCCO)c(Nc2ccc(I)cc2F)c(F)c1F [Compound 23, (E)-3,4-difluoro-2-(2-fluoro-4-iodo-phenylamino)-N-(2-hydroxy-ethoxy)-5-[(2-methylamino-ethoxyimino)-methyl]-benzamide] | 88 | 85 |  |  |  |  |  |  |
| O=C(NOCCO)c1cc(/C=N/OCc2cnc[nH]2)c(F)c(F)c1Nc1ccc(I)cc1F [Compound 29, (E)-3,4-difluoro-2-(2-fluoro-4-iodo-phenylamino)-N-(2-hydroxy-ethoxy)-5-[(3H-imidazol-4-ylmethoxyimino)-methyl]-benzamide] | 165 | 576 |  |  |  |  |  |  |
| O=C(NOCCO)c1cc(/C=N/OCc2ccncc2)c(F)c(F)c1Nc1ccc(I)cc1F [Compound 30, (E)-3,4-difluoro-2-(2-fluoro-4-iodo-phenylamino)-N-(2-hydroxy-ethoxy)-5-[(pyridin-4-ylmethoxyimino)-methyl]-benzamide] | 790 | 88 |  |  | > 6 |  |  | < 31.3 |
| CO/N=C/c1cc(C(=O)NOCCO)c(Nc2ccc(I)cc2F)c(F)c1F [Compound 31, (E)-3,4-difluoro-2-(2-fluoro-4-iodo-phenylamino)-N-(2-hydroxy-ethoxy)-5-[methoxyimino-methyl]-benzamide] | 463 | 335 |  |  |  |  |  |  |
| CC(C)O/N=C/c1cc(C(=O)NOCCO)c(Nc2ccc(I)cc2F)c(F)c1F [Compound 32, (E)-3,4-difluoro-2-(2-fluoro-4-iodo-phenylamino)-N-(2-hydroxy-ethoxy)-5-[isopropoxyimino-methyl]-benzamide] | 84 | 1250 |  |  |  |  |  |  |
| CC(C)(O)CCO/N=C/c1cc(C(=O)NOCCO)c(Nc2ccc(I)cc2F)c(F)c1F [Compound 33, (E)-3,4-difluoro-2-(2-fluoro-4-iodo-phenylamino)-N-(2-hydroxy-ethoxy)-5-[(3-hydroxy-3-methyl-butoxyimino)-methyl]-benzamide] | 275 | 37.5 |  |  |  |  |  | < 7.8 |
| CC(C)(CO)CO/N=C/c1cc(C(=O)NOCCO)c(Nc2ccc(I)cc2F)c(F)c1F [Compound 34, (E)-3,4-difluoro-2-(2-fluoro-4-iodo-phenylamino)-5-[(E)-(3-hydroxy-2,2-dimethyl-propoxyimino)-methyl]-N-(2-hydroxy-ethoxy)-benzamide] | 143 | 69 |  |  |  |  |  | < 7.8 |
| O=C(NOCCO)c1cc(/C=N/OCC2(CO)CC2)c(F)c(F)c1Nc1ccc(I)cc1F [Compound 35, (E)-3,4-difluoro-2-(2-fluoro-4-iodo-phenylamino)-N-(2-hydroxy-ethoxy)-5-[(1-hydroxymethyl-cyclopropylmethoxyimino)-methyl]-benzamide] | 203 | 30.4 |  |  |  |  |  | < 7.8 |
| O=C(NOCCO)c1cc(/C=N/OCCCCO)c(F)c(F)c1Nc1ccc(I)cc1F [Compound 36, (E)-3,4-difluoro-2-(2-fluoro-4-iodo-phenylamino)-5-[(4-hydroxy-butoxyimino)-methyl]-N-(2-hydroxy-ethoxy)-benzamide] | 365 | 45 |  |  |  |  |  | < 7.8 |
| COC(C)(C)CCO/N=C/c1cc(C(=O)NOCCO)c(Nc2ccc(I)cc2F)c(F)c1F [Compound 37, (E)-3,4-difluoro-2-(2-fluoro-4-iodo-phenylamino)-N-(2-hydroxy-ethoxy)-5-[(3-methoxy-3-methyl-butoxyimino)-methyl]-benzamide] | 600 | 287 |  |  |  |  |  |  |
| COCCO/N=C/c1cc(C(=O)NOCCO)c(Nc2ccc(I)cc2F)c(F)c1F [Compound 38, (E)-3,4-difluoro-2-(2-fluoro-4-iodo-phenylamino)-N-(2-hydroxy-ethoxy)-5-[(2-methoxy-ethoxyimino)-methyl]-benzamide] | 476 | 395 |  |  |  |  |  |  |
| CSCCO/N=C/c1cc(C(=O)NOCCO)c(Nc2ccc(I)cc2F)c(F)c1F [Compound 39, (E)-3,4-difluoro-2-(2-fluoro-4-iodo-phenylamino)-N-(2-hydroxy-ethoxy)-5-[(2-methylsulfanyl-ethoxyimino)-methyl]-benzamide] | 114 | 232 |  |  |  |  |  | < 7.8 |
| CS(=O)(=O)CCO/N=C/c1cc(C(=O)NOCCO)c(Nc2ccc(I)cc2F)c(F)c1F [Compound 40, (E)-3,4-difluoro-2-(2-fluoro-4-iodo-phenylamino)-N-(2-hydroxy-ethoxy)-5-[(2-methanesulfonyl-ethoxyimino)-methyl]-benzamide] | 27 | 67 | 1.49 |  | > 6 |  |  |  |
| O=C(NOCCO)c1cc(/C=N/OCCOCCO)c(F)c(F)c1Nc1ccc(I)cc1F [Compound 46, (E)-3,4-difluoro-2-(2-fluoro-4-iodo-phenylamino)-N-(2-hydroxy-ethoxy)-5-{[2-(2-hydroxy-ethoxy)-ethoxyimino]-methyl}-benzamide] | 103 | 107 |  |  |  |  |  |  |
| CC(C)(O)CO/N=C\c1cc(C(=O)NOCCO)c(Nc2ccc(I)cc2F)c(F)c1F [Compound 51, (Z)-3,4-Difluoro-2-(2-fluoro-4-iodo-phenylamino)-N-(2-hydroxy-ethoxy)-5-[(2-hydroxy-2-methyl-propoxyimino)-methyl]-benzamide] | 6 | 21 |  |  |  |  |  | < 7.8 |
| CS(=O)(=O)CCO/N=C\c1cc(C(=O)NOCCO)c(Nc2ccc(I)cc2F)c(F)c1F [Compound 53, (Z)-3,4-Difluoro-2-(2-fluoro-4-iodo-phenylamino)-N-(2-hydroxy-ethoxy)-5-[(2-methanesulfonyl-ethoxyimino)-methyl]-benzamide] | 1.9 | 17 |  |  |  |  |  | < 7.8 |
| O=C(NOCCO)c1cc(/C=N\OCCN2CCNC2=O)c(F)c(F)c1Nc1ccc(I)cc1F [Compound 59, (Z)-3,4-difluoro-2-(2-fluoro-4-iodo-phenylamino)-N-(2-hydroxy-ethoxy)-5-{[2-(2-oxo-imidazolidin-1-yl)-ethoxyimino]-methyl}-benzamide] | 17 | 50 |  |  |  |  |  | 69 (≈ 41.9 µg/mL) |
| O=C(NOCCO)c1cc(/C=N\OCCN2CCCC2=O)c(F)c(F)c1Nc1ccc(I)cc1F [Compound 60, (Z)-3,4-difluoro-2-(2-fluoro-4-iodo-phenylamino)-N-(2-hydroxy-ethoxy)-5-{[2-(2-oxo-pyrrolidin-1-yl)-ethoxyimino]-methyl}-benzamide] | 20 | 78 |  |  |  |  |  |  |

Source: patent publication US8084645B2, “4-phenylamino-benzaldoxime derivatives and uses thereof as mitogen-activated protein kinase kinase (MEK) inhibitors” (Chugai Seiyaku Kabushiki Kaisha, priority 2003, dated 2011)
